{"source": "patent US20120231448A1", "about": "“LOW CELL TOXICITY […]” (priority 2011, published 2012)", "key": {"293 cell": {"test_system": "293 cell", "test": "LD 50 hygromycin B concentration for sensitive cells", "assay_type": "cell-based", "details": "sensitive 293 cell"}, "Tobacco Calli cells": {"test_system": "Tobacco Calli cells", "test": "LD 50 hygromycin B concentration for sensitive cells", "assay_type": "cell-based"}, "[1]": {"test_system": "293 cells transformed with the Hygromycin B phosphotransferase gene", "test": "LD 50 for resistant cells", "details": "resistant 293 cells; for LD 50 for different impurities for resistant cells: isolated impurities added to media"}, "Fungi cell": {"test_system": "Fungi cell", "test": "LD 50 hygromycin B concentration for sensitive cells", "assay_type": "cell-based"}, "Escherichia Coli": {"test_system": "Escherichia Coli", "test": "LD 50 hygromycin B concentration for sensitive cells", "assay_type": "cell-based"}, "resistant cells": {"test_system": "resistant cells", "details": "comparison between batches / impurities"}, "[2]": {"test_system": "Tobacco Calli cells transformed with the Hygromycin B phosphotransferase gene", "test": "LD 50 for resistant cells", "details": "for LD 50 for different impurities for resistant cells: isolated impurities added to media"}}}
{"compound": "CN[C@H]1C[C@@H](N)[C@H](O)[C@@H](O[C@@H]2O[C@H](CO)[C@H](O)[C@@H]3OC4(O[C@H]23)O[C@H]([C@@H](N)CO)[C@H](O)[C@H](O)[C@H]4O)[C@@H]1O", "note": "(some centres unmarked) [Batch T-94, hygromycin B]", "values": [{"measurement": "LD 50 hygromycin B concentration for sensitive cells", "setting": "293 cell", "value": 8.5, "unit": "µg/mL"}, {"measurement": "LD 50 hygromycin B concentration for sensitive cells", "setting": "Tobacco Calli cells", "value": 4.7, "unit": "µg/mL"}, {"measurement": "LD 50 hygromycin B concentration for resistant cells", "setting": "[1]; hygromycin B batches", "value": 394, "unit": "µg/mL"}, {"measurement": "LD 50 hygromycin B concentration for sensitive cells", "setting": "Fungi cell", "value": 14.2, "unit": "µg/mL"}, {"measurement": "LD 50 hygromycin B concentration for sensitive cells", "setting": "Escherichia Coli", "value": 8.2, "unit": "µg/mL"}, {"measurement": "toxicity to resistant cells (in words)", "setting": "resistant cells", "value": "lower toxicity to resistant cells"}, {"measurement": "LD 50 hygromycin B concentration for resistant cells", "setting": "[2]; hygromycin B batches", "value": 490, "unit": "µg/mL"}]}
{"compound": "NC1CC(N)C(O)C(OCC(O)C(O)C(O)C(O)CO)C1O", "note": "(centres unmarked) [Impurity D]", "values": [{"measurement": "LD 50 for different impurities for resistant cells", "setting": "[1]", "value": 1.7, "unit": "µg/mL"}, {"measurement": "LD 50 for different impurities for resistant cells", "setting": "[2]", "value": 0.5, "unit": "µg/mL"}]}
{"compound": "Destomic acid [Impurity A]", "values": [{"measurement": "LD 50 for different impurities for resistant cells", "setting": "[1]", "value": 240, "unit": "µg/mL"}, {"measurement": "LD 50 for different impurities for resistant cells", "setting": "[2]", "value": 193, "unit": "µg/mL"}]}
